# Where two headings read alike, the source gives them in different places.
# Tests used:
# [1] = LogD (measured octanol water co-efficient); type: physicochemical
# [2] = tested on: T. b. brucei (GVR35-VSL2); assay: Meningoencephalic mouse model (stage 2 HAT efficacy model, GVR35) with bioluminescence imaging; type: in vivo; conditions: for % Cured / Mean Day of Relapse / Mice Cured/Total / Day of Relapse, mice which did not relapse (value in parenthesis): seven days; for Dose that completely cured stage 2 infection: HAT mouse model
# Method: The GVR35 mouse CNS model mimics the second (meningoencephalic) stage of African trypanosomiasis. Female CD1 mice (~8 weeks old, from Charles River) were injected intraperitoneally (i.p.) with 3 × 10^4 T. b. brucei (GVR35-VSL2) bloodstream-form parasites. As controls, a group of three untreated mice and another group of three mice treated with diminazene aceturate (DA) were included. […] Mice treated with DA usually relapse after 42 days post-infection. […]
# Blood parasitemia was quantified weekly from day 21/22, by microscopy of blood from the tail vein. Mice were imaged for bioluminescence using an in vivo imaging system (IVIS) prior to treatment on day 21/22, and weekly after treatment, as described previously. Briefly, mice, in groups of three, were injected i.p. with 150 mg of D-luciferin (Promega) per kilogram body weight in PBS and imaged after 10 min, using an IVIS Spectrum (PerkinElmer, Waltham, Massachusetts MA, USA). Living Image Software (PerkinElmer) was used for acquisition and analysis of bioluminescence imaging data. Bioluminescence in the same rectangular region of interest (ROI) on whole-body mouse images was quantified and is shown in total flux (photons per second). Images were cropped to the ROIs and composites of images from representative mice are shown. Uncured mice were euthanized within 1 or 2 days of parasite detection in the blood. Cured mice were euthanized between day 92 and 101 post-infection. All the results from the individual experiments were reported as number of mice cured over total number of mice treated. A Kaplan–Meier plot was used for representing the number of mice cured at different treatment doses.
# [3] = tested on: MDR1-MDCK (Multi Drug Resistant 1 overexpressing Madin–Darby canine kidney cells); assay: in vitro; conditions: dog
# Method: In order to evaluate potential of brain permeability, all three compounds were tested in an MDR1-MDCK permeability assay. […] Those that have a high efflux ratio are generally substrates for Pgp transporters, thereby having a higher propensity to be excluded from the brain. […] To assess directly the TP compounds’ ability to penetrate brain, mice were dosed with compound, and plasma and brains were collected after 5 and 60 min following intravenous dosing.
# [4] = tested on: T. b. rhodesiense; assay: Growth inhibition of T. b. rhodesiense strains; type: cell-based; conditions: Trypanosoma brucei, mean ± SD, read-out: T. b. rhodesiense EC50
# [5] = Intravenous pharmacokinetics in mouse; type: in vivo; conditions: for T1/2 / Vd: i.v. 5 mg/kg; for T1/2: elimination half-life; for half-life / Vd / clearance: male, BALB/c, iv; for half-life / clearance: 5 mg/kg; for half-life: i.v., read-out: Elimination half-life (converted); for Vd: read-out: Vss
# Method: Determination of intravenous (i.v.) and per oral (p.o.) pharmacokinetics (PK) were carried out by using male BALB/c mice. […] To avoid any granular material, the solution was filtered, using a 0.45 μm syringe filter. The filtered solutions were dosed intravenously to mice via the lateral tail vein, at 5 mg/kg, with a dosing volume of 2 mL/kg. For all the p.o. PK studies, compounds were resuspended in 0.5% v/v methyl cellulose in 0.5 % v/v tween 80 solution. For 20 mg/kg dosing, 200 µL of compounds was administered orally to mice. […] Blood samples were collected into heparin microtainers and centrifuged, and then plasma was separated and frozen until analysis. Plasma samples (20 μL) were extracted with acetonitrile:methanol (3:1) containing internal standard. […] The supernatant was transferred to a 96-well analysis plate and analyzed, using optimized LC/MS/MS conditions. For every experiment, 3 mice were used per compound, per dose. The plasma concentration-time profile was obtained by plotting the mean value from the three animals at each time point. Various PK parameters, such as Cmax (maximum concentration), area under curve (AUC) and oral bioavailability (F) for compounds, were calculated by non-compartmental regression analysis, using an in-house fitting program developed at GNF [8]. All the in-life studies were carried out under protocols approved by the Animal Care and Use Committee (IACUC), following animal ethics guidelines of GNF.
# [6] = PAMPA (parallel artificial membrane permeability assay); type: in vitro ADME; conditions: FA: fraction absorbed
# Method: (§1) Test compounds’ solubility was determined in a high-throughput thermodynamic solubility assay, as described previously. The PAMPA (parallel artificial membrane) assays were carried out, using a standard protocol. Plasma protein binding was determined by using mouse blood, whilst brain tissue binding was determined by using rat brain tissue homogenate. Intrinsic metabolic clearances were determined in mouse liver microsomes, using the compound depletion approach and LC–MS/MS quantification.
# [7] = tested on: T. b. brucei STIB795; assay: Hemolymphatic mouse model (stage 1 HAT efficacy model); type: in vivo; conditions: for % Cured / Mean day of Relapse / Mice Cured/Total: four days; for Minimum efficacious dose: QD dosing for four days, stage 1 model
# Method: The T. b. brucei STIB795 acute mouse model mimics the hemolymphatic stage of the sleeping sickness disease. We used six female NMRI mice per experimental group, divided into two cages. Heparinized blood from a donor mouse with approximately 5 × 10^6 per mL parasitemia was suspended in phosphate saline glucose (PSG), to obtain a parasite suspension of […]. Each mouse was injected with 0.25 mL of parasite suspension (10^4 bloodstream forms of T. b. brucei STIB795) intraperitoneally. All compounds were formulated in 0.5% methylcellulose and 0.5% Tween80. Three days post-infection, test compounds were administered orally on four consecutive days, in a volume of 100 µL/10 g. Three mice served as infected–untreated controls. […] Until 31 days post-infection, parasitemia was monitored microscopically by tail-blood examination twice a week. Mice were considered cured when there was no parasitemia detected in the tail blood. All the results from the individual experiments were reported as number of mice cured over total number of mice treated. A Kaplan–Meier plot was used for representing the number of mice cured at different treatment doses.
# [8] = Intrinsic metabolic clearance in mouse liver microsomes; type: in vitro ADME
# Method: as §1
# [9] = Brain-to-plasma drug concentration ratio in mice; type: in vivo; conditions: mouse, read-out: B/P Ratio; for Kp at 5 min: 5 min after 1 mg/kg i.v.; for Kp at 60 min: 60 min after 1 mg/kg i.v.
# Method: For measurement of the brain-to-plasma drug concentration ratio, mice were dosed intravenously with 1 mg/kg compounds. Mice were euthanized at 5 and 60 min post-dosing, and blood and brains were collected. The compound concentrations in plasma and brains were measured, following the protocol described above.
# [10] = RHODESIENSE / STIB900, strain STIB900
# [11] = RHODESIENSE / STIB900, strain STIB900 Mel^R (melarsoprol-resistant)
# [12] = RHODESIENSE / STIB900, strain STIB900 Pent^R (pentamidine-resistant)
# [13] = liver microsomes, read-out: Mouse liver microsomal clearance
smiles,measurement,setting,value
Cc1nc(C)c(C(=O)Nc2ccc(F)c(-c3nc4ncc(-c5ccccc5)cn4n3)c2)o1 [GNF3849],logD,[1],3.31
same,% Cured,[2]; 7.5 mg/kg QD oral,0%
same,Mean Day of Relapse,[2]; 7.5 mg/kg QD oral,37 days post infection
same,Mice Cured/Total,[2]; 7.5 mg/kg QD oral,0/6
same,% Cured,[2]; 75 mg/kg QD oral,50%
same,"Day of Relapse, mice which did not relapse (value in parenthesis)",[2]; 75 mg/kg QD oral,> 92 days post infection
same,Mice Cured/Total,[2]; 75 mg/kg QD oral,3/6
same,Mean Day of Relapse,"[2]; 75 mg/kg QD oral, mice which relapsed",60 days post infection
same,Cure outcome,"[2]; 7.5 and 75 mg/kg, once daily",failed to achieve complete cure
same,MDR1-MDCK A–B,[3],4.5
same,MDR1-MDCK B–A,[3],14.1
same,EC50,[4]; [10],1.4 ± 1 nM
same,EC50,[4]; [11],0.6 nM
same,EC50,[4]; [12],1.7 ± 1 nM
same,T1/2,[5],6.5 H
same,half-life,[5]; plasma,6.5 h
same,Vd,[5]; plasma,1.2 L/kg
same,PAMPA Permeability (% FA),[6],96 % FA
same,% Cured,[7]; 7.5 mg/kg QD oral,100%
same,Mean day of Relapse,[7]; 7.5 mg/kg QD oral,>31 days post infection
same,Mice Cured/Total,[7]; 7.5 mg/kg QD oral,6/6
same,% Cured,[7]; 25 mg/kg QD oral,100%
same,Mean day of Relapse,[7]; 25 mg/kg QD oral,>31 days post infection
same,Mice Cured/Total,[7]; 25 mg/kg QD oral,6/6
same,% Cured,[7]; 75 mg/kg QD oral,100%
same,Mean day of Relapse,[7]; 75 mg/kg QD oral,>31 days post infection
same,Mice Cured/Total,[7]; 75 mg/kg QD oral,6/6
same,Cure outcome,"[7]; all doses: 7.5, 25 and 75 mg/kg, once daily, for four days",complete cure
same,microsomal CLint,[8]; [13],15.2 µL/min/mg
same,Kp at 5 min,"[9]; brain and plasma, intravenous",0.22
same,Kp at 60 min,"[9]; brain and plasma, intravenous",0.28
Cc1nc(C)c(C(=O)Nc2ccc(F)c(-c3nc4ncc(-c5ccccn5)cn4n3)c2)o1 [GNF6702],logD,[1],2.32
same,% Cured,[2]; 3 mg/kg QD oral,0%
same,Mean Day of Relapse,[2]; 3 mg/kg QD oral,47 days post infection
same,% Cured,[2]; 10 mg/kg QD oral,66%
same,"Day of Relapse, mice which did not relapse (value in parenthesis)",[2]; 10 mg/kg QD oral,> 92 days post infection
same,Mean Day of Relapse,"[2]; 10 mg/kg QD oral, mice which relapsed",50 days post infection
same,% Cured,[2]; 30 mg/kg QD oral,100%
same,Mean Day of Relapse,[2]; 30 mg/kg QD oral,>92 days post infection
same,% Cured,[2]; 100 mg/kg QD oral,100%
same,Mean Day of Relapse,[2]; 100 mg/kg QD oral,>92 days post infection
same,Cure outcome,"[2]; 30 and 100 mg/kg, once daily, oral",complete cure
same,Dose that completely cured stage 2 infection,[2],30 mg/kg
same,MDR1-MDCK A–B,[3],8.3
same,MDR1-MDCK B–A,[3],22.1
same,EC50,[4]; [10],1.6 ± 0.9 nM
same,EC50,[4]; [11],0.7 ± 0.2 nM
same,EC50,[4]; [12],1.2 ± 0.3 nM
same,T1/2,[5],7.0 H
same,Vd,[5]; in vivo,1.2 L/kg
same,clearance,[5]; plasma,2.26 mL/min/kg
same,PAMPA Permeability (% FA),[6],92 % FA
same,% Cured,[7]; 0.1 mg/kg QD oral,0%
same,Mean day of Relapse,[7]; 0.1 mg/kg QD oral,6.83 days post infection
same,% Cured,[7]; 0.3 mg/kg QD oral,33.3%
same,Mean day of Relapse,[7]; 0.3 mg/kg QD oral,19 days post infection
same,% Cured,[7]; 1 mg/kg QD oral,100%
same,Mean day of Relapse,[7]; 1 mg/kg QD oral,>31 days post infection
same,% Cured,[7]; 3 mg/kg QD oral,100%
same,Mean day of Relapse,[7]; 3 mg/kg QD oral,>31 days post infection
same,% Cured,[7]; 10 mg/kg QD oral,100%
same,Mean day of Relapse,[7]; 10 mg/kg QD oral,>31 days post infection
same,Minimum efficacious dose,[7],1 mg/kg
same,microsomal CLint,[8]; microsomes,34.1 µL/min/mg
same,Kp at 5 min,[9]; in vivo,0.13
same,Kp at 60 min,[9]; in vivo,0.17
Cc1nc(C)c(C(=O)Nc2ccc(F)c(-c3nc4ncc(C(C)(C)C)cn4n3)c2)o1 [NITD689],logD,[1],3.05
same,% Cured,[2]; 15 mg/kg BID oral,0%
same,Mean Day of Relapse,[2]; 15 mg/kg BID oral,42 days post infection
same,Mice Cured/Total,[2]; 15 mg/kg BID oral,0/6
same,Cure outcome,[2]; 15 mg/kg twice daily and 30 mg/kg once daily,failed to cure
same,% Cured,[2]; 30 mg/kg BID oral,100%
same,Mean Day of Relapse,[2]; 30 mg/kg BID oral,>94 days post infection
same,Mice Cured/Total,[2]; 30 mg/kg BID oral,6/6
same,% Cured,[2]; 30 mg/kg QD oral,0%
same,Mean Day of Relapse,[2]; 30 mg/kg QD oral,50 days post infection
same,Mice Cured/Total,[2]; 30 mg/kg QD oral,0/6
same,Cure outcome,[2]; 30 mg/kg twice daily and 60 mg/kg once daily,complete cure
same,% Cured,[2]; 60 mg/kg QD oral,100%
same,Mean Day of Relapse,[2]; 60 mg/kg QD oral,>94 days post infection
same,Mice Cured/Total,[2]; 60 mg/kg QD oral,6/6
same,Dose that completely cured stage 2 infection,[2],60 mg/kg
same,MDR1-MDCK A–B,[3],32.6
same,MDR1-MDCK B–A,[3],29.2
same,T1/2,[5],1.6 H
same,clearance,[5]; plasma,13.5 mL/min/kg
same,half-life,[5]; plasma,1.6 h
same,Vd,[5]; plasma,1.5 L/kg
same,PAMPA Permeability (% FA),[6],99.1 % FA
same,% Cured,[7]; 1 mg/kg QD oral,0%
same,Mean day of Relapse,[7]; 1 mg/kg QD oral,19.5 days post infection
same,Mice Cured/Total,[7]; 1 mg/kg QD oral,0/6
same,% Cured,[7]; 1.5 mg/kg BID oral,16.7%
same,Mean day of Relapse,[7]; 1.5 mg/kg BID oral,21 days post infection
same,Mice Cured/Total,[7]; 1.5 mg/kg BID oral,1/6
same,% Cured,[7]; 3 mg/kg QD oral,50%
same,Mean day of Relapse,[7]; 3 mg/kg QD oral,21 days post infection
same,Mice Cured/Total,[7]; 3 mg/kg QD oral,3/6
same,% Cured,[7]; 10 mg/kg QD oral,100%
same,Mean day of Relapse,[7]; 10 mg/kg QD oral,>31 days post infection
same,Mice Cured/Total,[7]; 10 mg/kg QD oral,6/6
same,Minimum efficacious dose,[7],10 mg/kg
same,microsomal CLint,[8]; [13],7.41 µL/min/mg
same,Kp at 5 min,"[9]; brain and plasma, intravenous",0.12
same,Kp at 60 min,"[9]; brain and plasma, intravenous",0.12

# Reference: publication PMC7157554, “Anti-Trypanosomal Proteasome Inhibitors Cure Hemolymphatic and Meningoencephalic Murine Infection Models of African Trypanosomiasis” (Tropical Medicine and Infectious Disease, 2020)
